Laboratory results: patent publication EP0347733A1, “Optically active hydantoin derivatives” (Eisai Co., Ltd., priority 1988, dated 1989)

Columns and labels:
mice = assay: acute toxicity tests with mice; assay type: in vivo
Procedure: In the acute toxicity tests with mice, LD₅₀ of the d-compound was 700 mg/kg and that of the ℓ-compound was 200 mg/kg.

[1] = test system: aconitine-induced arrhythmia; assay: aconitine-induced arrhythmia model of mice; assay type: in vivo; conditions: orally administered one hour before intraperitoneal injection of 0.1 mg/kg of aconitine, tachycardia and frequency of ventricular extrasystole from the electrocardiogram, 60 min
Procedure: The antiarrythmic activity of the compound of the present invention was examined with aconitine-induced arrhythmia model of mice. When 0.1 mg/kg of aconitine is intraperitoneally injected, usually ventricular tachycardia occurs within 20 minutes. The compound of the present invention (d- or ℓ-compound) was orally administered one hour before the intraperitoneal injection of 0.1 mg/kg of aconitine and the tachycardia and the frequency of ventricular extrasystole were determined from the electrocardiogram to determine the antiarrhythmic activity (ED₅₀). The ED₅₀ of the d-compound was 40 mg/kg and that of the ℓ-compound was 5 mg/kg.

myocardial contraction = assay: influence on myocardial contraction; conditions: amount several times as much as the antiarrhythmically effective amount
Source text: One of the pharmacological features of the compounds of the present invention is that they inhibit myocardial contraction only very slightly. This is a quite desirable property when they are used as the antiarrhythmic agents.

Compound	LD₅₀ (mice) [mg/kg]	antiarrhythmic activity (ED₅₀) [1] [mg/kg]	influence on the myocardial contraction (myocardial contraction)
CC1(C)CC2(NC(=O)N(CCCN3CCC(O)CC3)C2=O)c2cc(Cl)ccc2O1 (single isomer, unassigned) [d-compound, d-6-Chloro-2,2-dimethyl-1′-[3-(4-hydroxypiperidino)propyl]spiro[chroman-4,4′-imidazolidine]-2′,5′-dione]	700	40	–
CC1(C)CC2(NC(=O)N(CCCN3CCC(O)CC3)C2=O)c2cc(Cl)ccc2O1 (single isomer, unassigned) [ℓ-compound, ℓ-6-Chloro-2,2-dimethyl-1′-[3-(4-hydroxypiperidino)propyl]spiro[chroman-4,4′-imidazolidine]-2′,5′-dione]	200	5	–
CC(C)N(CCC(C(N)=O)(c1ccccc1)c1ccccn1)C(C)C (stereo not drawn) [disopyramide]	–	–	reduce myocardial contraction
C=C[C@H]1C[N@@]2CC[C@H]1C[C@@H]2[C@@H](O)c1ccnc2ccc(OC)cc12 [quinidine]	–	–	reduce myocardial contraction
